In assay [1] the test system is P. aeruginosa ATCC 27853. In words: Standard EPI assay: MIC of test antibiotic (levofloxacin, cefepime) in absence and presence of EPI. It is filed as cell-based, Pseudomonas aeruginosa. Conditions: for Enhanced Activity in P. aeruginosa (fold enhancement of antibiotic activity): levofloxacin as antibiotic, Pseudomonas aeruginosa ATCC 27853. The protocol:
(§1) MIC assays were conducted in accordance with Clinical and Laboratory Standards Institute (CLSI) guidelines for broth microdilution.
(§2) The EPI assay for the purposes of these studies represents a MIC assay in which the MIC of the antibiotic against the bacteria is tested in the presence of an experimental efflux pump inhibitor (EPI). […] Using serial dilutions of the EPI, its enhancement of antibiotic activity was then evaluated. […] For the evaluation of the efficacy of an EPI against bacteria that were pre-exposed to an antibiotic, the inoculum of bacteria that used was developed from a bacterial culture isolated as a single colony following exposure at […] the MIC of the antibiotic (so as to induce efflux pump expression), was to be used in combination with the EPI.
(§3) The MIC of the test antibiotic is determined in the absence and presence of sub-inhibitory concentrations of the EPI. Initially, the sub-inhibitory concentration used was ½×MIC of the EPI. […] Similar methodology was employed to examine the synergy with Escherichia coli ATCC 25922 in the presence of varied concentrations of these EPIs using clarithromycin as the antibiotic.

Assay [2] concerns Escherichia coli ATC 25922. As to the kind of experiment: Bacterial EPI assay: MIC of clarithromycin in the presence of EPI. It counts as cell-based. Conditions: clarithromycin as antibiotic. The procedure:
as §1, §2, §3

For assay [3], the system named is P. aeruginosa [ATCC 27853]. In words: Mouse septicemia model of infection. It counts as in vivo, Pseudomonas aeruginosa. Conditions: mice, Experiment #489, cefepime, 10 mg/ml b.i.d. The protocol: A general method for the in vivo assessment of bacterial EPIs is complicated by the fact that that both the antibiotic and the EPI need to be present for synergy to be achieved. A general method was discovered that has proven to be effective in establishing the relative efficacy of bacterial EPIs in a mouse septicemia model. The bacterial EPI is administered initially intravenously to mice with septicemia, followed 5 minutes later by the intravenous administration or oral administration of the antibiotic. A second administration of the EPI is then administered subcutaneously after an additional 5 minutes to act as a booster, followed by the final administration of the antibiotic either intravenously or orally after the second administration of the EPI. […] In a few instances, a second regiment of both EPI and antibiotic as administered on day 1 was required after 24 hours to affect cures.
Determination of the in vivo efficacy of bacterial efflux pump inhibitors (EPIs) can be efficiently determined using a mouse septicemia model of infection. The systemic infection is initiated by a 500 ul intraperitoneal injection of an inoculum containing bacteria (such as P. aeruginosa [ATCC 27853]) at a concentration of approximately 5×10^5 cells in 5% mucin in Swiss Webster female mice. […]

In assay [4] the test system is P. aeruginosa ATCC 27853 pre-exposed to cefepime. As to the kind of experiment: Pre-exposure bacterial EPI assay. It is filed as cell-based, Pseudomonas aeruginosa. The protocol:
as §2
The principle underlying this pre-exposure is that exposure of the bacteria to sub-inhibitory concentrations of the test antibiotic will induce expression of efflux pumps, if any, and may represent the scenario in vivo more accurately.

In assay [5] the test system is P. aeruginosa ATCC 27853. In words: Intrinsic MIC assay (CLSI broth microdilution). It counts as cell-based. Conditions: Pseudomonas aeruginosa, ATCC27853, read-out: intrinsic MIC of the EPI. The protocol: as §1
The intrinsic MIC of the experimental EPIs was tested with the method described. The 2-fold serial dilution begin with 100 μg/mL of tested compound in the first column of the 96-well plates.
The following Gram-negative bacterial strains were included in these assays: • Escherichia coli ATCC 25922 • Klebsiella pneumoniae ATCC 13883 and ATCC 10031 • Pseudomonas aeruginosa ATCC 27853. • Acinetobacter baumannii ATCC 19606 Bacterial EPI Assays Tier 1 Testing
On the technique in general: In broth dilution the organism is exposed to a series of concentrations in liquid medium.

Setting [6] is: P. aeruginosa ATCC 27853, 6.25 μg/mL of the EPI.

Molecules are shown by their SMILES. Structures can show the parent of a compound that is named as a salt. Marks after values point to notes of the source that are not given here.

Regarding `Cl.Cl.NC[C@@H]1CNC(CNC(=O)c2cc(-c3ccc(C(F)(F)F)cc3)cc(-c3ccc(C(F)(F)F)cc3)c2)C1` (stereo in doubt) [Example 9, N-(((2R,4R)-4-(Aminomethyl)pyrrolidin-2-yl)methyl)-4,4″-bis(trifluoromethyl)-[1,1′:3′,1″-terphenyl]-5′-carboxamide hydrochloride salt], the “Enhanced Activity in P. aeruginosa (fold enhancement of antibiotic activity)” value in the assay on P. aeruginosa ATCC 27853 [1] (EPI at 12.5 μg) was 4x/12.5 μg.

As to `Cl.Cl.N[C@@H]1CN[C@H](CNC(=O)c2cc(-c3ccc(F)cc3)cc(-c3ccc(F)cc3)c2)C1` [Example 1, N-(((2S, 4S)-4-aminopyrrolidin-2-yl)methyl)-4,4″-difluoro-[1, 1′:3′, 1′-terphenyl]-5′-carboxamide dihydrochloride], the “Enhanced Activity in E. coli (fold enhancement of antibiotic activity)” value in assay [2] (EPI at 6.25 μg) was 64x/6.25 μg. Besides, the “Enhanced Activity in P. aeruginosa (fold enhancement of antibiotic activity)” value in the assay with P. aeruginosa ATCC 27853 [1] (EPI at 6.25 μg) was 2x/6.25 μg.

For the molecule `CC(C)(C(=O)NC[C@@H]1C[C@H](N)CN1)c1cc(-c2ccc(F)cc2)cc(-c2ccc(F)cc2)c1.Cl.Cl` [Example 2], in assay [2] (EPI at 6.25 μg), the “Enhanced Activity in E. coli (fold enhancement of antibiotic activity)” value is 8x/6.25 μg.

Turning to `CC(C)(N)C1CN[C@H](CNC(=O)c2cc(-c3ccc(F)cc3)cc(-c3ccc(F)cc3)c2)C1.Cl.Cl` (stereo partly drawn) [Example 3, N-(((2S)-4-(2-aminopropan-2-yl)pyrrolidin-2-yl)methyl)-4,4″-difluoro-[1,1′:3′, 1″-terphenyl]-5′-carboxamide dihydrochloride], the “Enhanced Activity in E. coli (fold enhancement of antibiotic activity)” value in assay [2] (EPI at 12.5 μg) was found to be 1024x/12.5 μg. The “Enhanced Activity in P. aeruginosa (fold enhancement of antibiotic activity)” value in the assay with P. aeruginosa ATCC 27853 [1] (EPI at 12.5 μg) was determined as 32x/12.5 μg.

As to `Cl.Cl.NC[C@@H]1CN[C@H](CNC(=O)c2cc(-c3ccc(F)cc3)cc(-c3ccc(F)cc3)c2)C1` [Example 4, N-(((2S,4R)-4-(aminomethyl)pyrrolidin-2-yl)methyl)-4,4″-difluoro-[1,1′:3′,1″-terphenyl]-5′-carboxamide dihydrochloride], the “Enhanced Activity in E. coli (fold enhancement of antibiotic activity)” value in assay [2] (EPI at 3.125 μg) worked out at 512x/3.125 μg. Besides, in assay [3] (250 ul + Example 4, 2.0 mg/ml b.i.d.), the “% Survival (72 hr) Antibiotic + EPI” value was 100%. In addition, in the assay with P. aeruginosa ATCC 27853 [1] (P. aeruginosa ATCC 27853, 6.25 μg/mL (½×MIC) of the EPI), the “MIC of levofloxacin in the presence of EPI” value came out at 0.016 µg/mL. Also, in the assay on P. aeruginosa ATCC 27853 [1] (setting [6]), the “MIC of cefepime in the presence of EPI” value came to 0.125 µg/mL, the “decrease of the MIC of cefepime relative to absence of EPI” value amounted to 16 fold and the “reduction of the MIC of levofloxacin relative to absence of EPI” value turned out to be 64 fold. Besides, the “Enhanced Activity in P. aeruginosa (fold enhancement of antibiotic activity)” value in the assay on P. aeruginosa ATCC 27853 [1] (EPI at 6.25 μg) is on record as 64x/6.25 μg. In addition, in assay [4] (6.25 μg/mL of the EPI), the “MIC of cefepime against cefepime-exposed P. aeruginosa in the presence of EPI” value was 0.25 µg/mL and the “reduction of MIC of cefepime against cefepime-exposed P. aeruginosa” value was 64 fold. In addition, in the assay with P. aeruginosa ATCC 27853 [5], the MIC (in general, the smallest concentration in the dilution series that meets the test's criterion for growth inhibition) was found to be 12.5 µg/mL.

For `Cl.Cl.NC[C@H]1CN[C@H](CNC(=O)c2cc(-c3ccc(F)cc3)cc(-c3ccc(F)cc3)c2)C1` [Example 5, N-(((2S,4S)-4-(aminomethyl)pyrrolidin-2-yl)methyl)-4,4″-difluoro-[1,1′:3′,1″-terphenyl]-5′-carboxamide dihydrochloride], the “Enhanced Activity in E. coli (fold enhancement of antibiotic activity)” value in assay [2] (EPI at 6.25 μg) is 1024x/6.25 μg. Besides, in the assay on P. aeruginosa ATCC 27853 [1] (EPI at 6.25 μg), the “Enhanced Activity in P. aeruginosa (fold enhancement of antibiotic activity)” value came out at 32x/6.25 μg.

As to `Cl.Cl.NC[C@@H]1CN[C@H](COc2cc(-c3ccc(F)cc3)cc(-c3ccc(F)cc3)c2)C1` [Example 6, ((3R,5S)-5-(((4,4″-difluoro-[1,1′:3′,1″-terphenyl]-5′-yl)oxy)methyl)pyrrolidin-3-yl)methanamine dihydrochloride], the “Enhanced Activity in E. coli (fold enhancement of antibiotic activity)” value in assay [2] (EPI at 3.125 μg) was 32x/3.125 μg. In addition, the “Enhanced Activity in P. aeruginosa (fold enhancement of antibiotic activity)” value in the assay with P. aeruginosa ATCC 27853 [1] (EPI at 6.25 μg) is listed as 1x/6.25 μg.

Take `Cl.Cl.NC[C@H]1CN[C@H](COc2cc(-c3ccc(F)cc3)cc(-c3ccc(F)cc3)c2)C1` [Example 7]: the “Enhanced Activity in E. coli (fold enhancement of antibiotic activity)” value in assay [2] (EPI at 3.125 μg) came out at 64x/3.125 μg. In addition, the “Enhanced Activity in P. aeruginosa (fold enhancement of antibiotic activity)” value in the assay with P. aeruginosa ATCC 27853 [1] (EPI at 6.25 μg) is on record as 2x/6.25 μg.

With `NC[C@@H]1C[C@H](Oc2cc(-c3ccc(F)cc3)cc(-c3ccc(F)cc3)c2)CN1` [Example 8, ((2S,4S)-4-((4,4″-difluoro-[1,1′:3′,1″-terphenyl]-5′-yl)oxy)pyrrolidin-2-yl)methanamine], the “Enhanced Activity in E. coli (fold enhancement of antibiotic activity)” value in assay [2] (EPI at 6.25 μg) came to 2x/6.25 μg. For the same molecule, in the assay with P. aeruginosa ATCC 27853 [1] (EPI at 12.5 μg), the “Enhanced Activity in P. aeruginosa (fold enhancement of antibiotic activity)” value is reported as 1x/12.5 μg.

For the molecule `CC(C)(C(=O)NC[C@@H]1C[C@H](CN)CN1)c1cc(-c2ccc(F)cc2)cc(-c2ccc(F)cc2)c1` [Example 10, N-(((2S,4R)-4-(aminomethyl)pyrrolidin-2-yl)methyl)-2-(4,4″-difluoro-[1,1′:3′,1″-terphenyl]-5′-yl)-2-methylpropanamide hydrochloride salt], the “Enhanced Activity in E. coli (fold enhancement of antibiotic activity)” value in assay [2] (EPI at 6.25 μg) came to 512x/6.25 μg.

`CN1C[C@H](CN)C[C@H]1CNC(=O)c1cc(-c2ccc(F)cc2)cc(-c2ccc(F)cc2)c1` [Example 11, N-(((2S,4S)-4-(aminomethyl)-1-methylpyrrolidin-2-yl)methyl)-4,4″-difluoro-[1,1′:3′,1″-terphenyl]-5′-carboxamide hydrochloride salt]: the “Enhanced Activity in E. coli (fold enhancement of antibiotic activity)” value in assay [2] (EPI at 6.25 μg) was determined as 128x/6.25 μg.

With `CN(C)C[C@H]1CN[C@H](CNC(=O)c2cc(-c3ccc(F)cc3)cc(-c3ccc(F)cc3)c2)C1` [Example 12, N-(((2S,4R)-4-((dimethylamino)methyl)pyrrolidin-2-yl)methyl)-4,4″-difluoro-[1,1′:3′,1″-terphenyl]-5′-carboxamide hydrochloride salt], the “Enhanced Activity in E. coli (fold enhancement of antibiotic activity)” value in assay [2] (EPI at 25 μg) is listed as 2x/25 μg.

As to `CNC[C@@H]1CN[C@H](CNC(=O)c2cc(-c3ccc(F)cc3)cc(-c3ccc(F)cc3)c2)C1` [Example 14, 4,4″-difluoro-N-(((2S,4R)-4-((methylamino)methyl)pyrrolidin-2-yl)methyl)-[1,1′:3′,1″-terphenyl]-5′-carboxamide hydrochloride salt], the “Enhanced Activity in E. coli (fold enhancement of antibiotic activity)” value in assay [2] (EPI at 6.25 μg) turned out to be 64x/6.25 μg. The “Enhanced Activity in P. aeruginosa (fold enhancement of antibiotic activity)” value in the assay with P. aeruginosa ATCC 27853 [1] (EPI at 12.5 μg) was 32x/12.5 μg.

Regarding `CO/N=C(\C(=O)N[C@@H]1C(=O)N2C(C(=O)[O-])=C(C[N+]3(C)CCCC3)CS[C@H]12)c1csc(N)n1` [cefepime, reference compound], in assay [3] (250 ul), the “% Survival (72 hr) Antibiotic Only” value turned out to be 0%****. Moreover, in assay [4] (pre-exposed to cefepime, no EPI), the “increase of MIC of cefepime against pre-exposed versus unexposed P. aeruginosa” value worked out at 8 fold.

Source of the values: patent publication US11938114B2, “Bacterial efflux pump inhibitors” (priority 2017, dated 2024).
